These results are taken from ChEMBL document CHEMBL4017496 (J Med Chem, 2017).

Assay [1] has as its target T1, Peroxisome proliferator-activated receptor delta (Homo sapiens) (UniProt Q03181).
T1 sequence (whole entry): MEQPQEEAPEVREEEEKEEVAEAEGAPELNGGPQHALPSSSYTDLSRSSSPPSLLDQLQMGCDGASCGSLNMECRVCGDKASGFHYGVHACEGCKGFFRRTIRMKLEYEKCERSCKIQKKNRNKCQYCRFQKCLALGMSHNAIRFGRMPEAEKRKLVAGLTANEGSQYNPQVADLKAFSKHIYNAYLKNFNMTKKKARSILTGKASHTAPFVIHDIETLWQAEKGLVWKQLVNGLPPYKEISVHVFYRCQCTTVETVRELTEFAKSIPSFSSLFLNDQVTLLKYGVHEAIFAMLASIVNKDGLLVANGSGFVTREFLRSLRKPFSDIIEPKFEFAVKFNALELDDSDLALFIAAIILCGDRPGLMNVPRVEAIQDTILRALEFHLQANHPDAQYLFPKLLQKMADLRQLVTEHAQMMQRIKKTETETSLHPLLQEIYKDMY
Kind of assay: Transactivation of human GST-tagged PPARdelta LBD assessed as fluorescein-C33 coactivator recruitment at 10 uM by TR-FRET assay. A general note: TR-FRET usually uses a lanthanide donor and a delayed reading to cut background.

Assay [2] concerns the target T1, Peroxisome proliferator-activated receptor delta (Homo sapiens). Kind of assay: Displacement of Fluormone-Pan-PPAR Green from human GST-tagged PPARdelta LBD at 4 uM by TR-FRET assay relative to control.
Assay [3] shares this target. Kind of assay: Displacement of Fluormone-Pan-PPAR Green from human GST-tagged PPARdelta LBD by TR-FRET assay.
In assay [4] the target is T2, Peroxisome proliferator-activated receptor gamma (Homo sapiens) (UniProt P37231).
T2 sequence (whole entry): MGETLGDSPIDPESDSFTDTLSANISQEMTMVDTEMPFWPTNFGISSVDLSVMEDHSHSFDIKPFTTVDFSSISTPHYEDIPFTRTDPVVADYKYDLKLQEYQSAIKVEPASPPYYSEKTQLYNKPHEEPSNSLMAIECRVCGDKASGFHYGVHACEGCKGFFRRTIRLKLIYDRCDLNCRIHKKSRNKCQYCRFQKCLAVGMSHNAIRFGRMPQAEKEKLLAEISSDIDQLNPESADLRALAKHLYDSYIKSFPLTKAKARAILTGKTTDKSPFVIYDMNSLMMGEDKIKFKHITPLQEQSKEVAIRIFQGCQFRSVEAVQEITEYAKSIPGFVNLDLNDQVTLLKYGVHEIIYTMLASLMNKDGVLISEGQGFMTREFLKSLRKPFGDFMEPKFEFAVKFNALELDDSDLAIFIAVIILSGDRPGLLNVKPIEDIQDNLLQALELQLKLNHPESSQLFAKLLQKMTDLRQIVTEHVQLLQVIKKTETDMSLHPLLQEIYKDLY
Kind of assay: Displacement of Fluormone-Pan-PPAR Green from human GST-tagged PPARgamma LBD at 20 uM by TR-FRET assay relative to control.

The target of assay [5] is T3, Cyclin-dependent kinase 5/CDK5 activator 1 (Homo sapiens) (UniProt Q00535+Q15078). Description: Inhibition of human CDK5/p25 up to 20 uM using histone H1 as substrate after 40 mins in presence of [gamma32P]ATP by scintillation counting. The format is protein-complex assay.
In assay [6] the target is T2, Peroxisome proliferator-activated receptor gamma (Homo sapiens). Kind of assay: Transactivation of human PPARgamma expressed in African green monkey CV1 cells at 10 uM by luciferase reporter gene assay relative to control. The format is cell-based. (In general: Reporter assays use an easily measured gene product as a stand-in for the process of interest.)
The target of assay [7] is T4, Peroxisome proliferator-activated receptor alpha (Homo sapiens) (UniProt Q07869).
T4 sequence (whole entry): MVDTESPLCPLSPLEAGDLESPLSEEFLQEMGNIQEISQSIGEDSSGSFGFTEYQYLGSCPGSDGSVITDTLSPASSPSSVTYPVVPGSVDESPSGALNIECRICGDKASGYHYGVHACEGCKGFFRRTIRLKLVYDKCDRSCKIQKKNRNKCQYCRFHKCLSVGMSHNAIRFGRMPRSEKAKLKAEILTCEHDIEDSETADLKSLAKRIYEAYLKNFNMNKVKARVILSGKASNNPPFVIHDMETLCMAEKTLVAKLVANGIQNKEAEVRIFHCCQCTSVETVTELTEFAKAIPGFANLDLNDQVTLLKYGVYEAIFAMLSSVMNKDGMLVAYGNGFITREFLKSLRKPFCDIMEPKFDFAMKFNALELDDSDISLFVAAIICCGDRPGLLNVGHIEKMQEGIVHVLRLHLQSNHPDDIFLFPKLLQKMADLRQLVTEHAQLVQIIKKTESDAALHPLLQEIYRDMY
Description: Displacement of Fluormone-Pan-PPAR Green from human GST-tagged PPARalpha LBD at 4 uM by TR-FRET assay relative to control.

Another assay deals with Mus musculus. Kind of assay: Antidiabetic activity in STZ-induced diabetic C57BL/6J mouse assessed as insulin sensitivity by measuring reduction of serum glucose levels at 20 mg/kg,po for 5 days measured at 1 and 4 hrs post last dose. The format is functional, organism-based.
The target in assay [8] is T5, Oxysterols receptor LXR-beta (Homo sapiens) (UniProt P55055).
T5 sequence (whole entry): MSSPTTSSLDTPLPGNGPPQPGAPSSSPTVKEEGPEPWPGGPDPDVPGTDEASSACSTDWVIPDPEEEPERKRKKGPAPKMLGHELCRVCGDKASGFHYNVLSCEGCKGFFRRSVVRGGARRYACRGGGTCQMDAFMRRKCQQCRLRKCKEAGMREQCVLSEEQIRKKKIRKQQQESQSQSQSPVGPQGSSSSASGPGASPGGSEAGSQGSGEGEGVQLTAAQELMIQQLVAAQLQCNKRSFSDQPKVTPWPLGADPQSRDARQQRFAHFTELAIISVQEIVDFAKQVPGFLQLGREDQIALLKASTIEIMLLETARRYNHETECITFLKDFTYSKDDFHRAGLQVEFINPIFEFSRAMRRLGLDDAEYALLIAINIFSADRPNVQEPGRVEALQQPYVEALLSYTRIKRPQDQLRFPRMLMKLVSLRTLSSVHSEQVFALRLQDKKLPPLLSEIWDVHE
Kind of assay: Binding affinity to human LXRbeta at 4 uM by TR-FRET assay.

In assay [9] the target is Peroxisome proliferator-activated receptor delta (Homo sapiens) (UniProt Q03181). Kind of assay: Antagonist activity at human GST-tagged PPARdelta LBD assessed as reduction in GW501516-induced fluorescein-C33 coactivator recruitment at 1 uM by TR-FRET assay relative to control.
Assay [10] concerns the target T3, Cyclin-dependent kinase 5/CDK5 activator 1 (Homo sapiens). Kind of assay: Inhibition of human CDK5/p35 up to 20 uM using histone H1 as substrate after 40 mins in presence of [gamma32P]ATP by scintillation counting. It counts as protein-complex assay.
Assay [11] is described as follows: Induction of adipogenesis in human bone marrow-derived mesenchymal stem cells assessed as adiponectin level at 20 uM measured on day 7 after 48 hrs by ELISA. The format is functional, Mesenchymal stem cell. (ELISA stands for enzyme-linked immunosorbent assay.)
Assay [12] deals with T1, Peroxisome proliferator-activated receptor delta (Homo sapiens). Description: Displacement of Fluormone-Pan-PPAR Green from human GST-tagged PPARdelta LBD at 20 uM by TR-FRET assay relative to control.
Another assay deals with Mesenchymal stem cell. Kind of assay: Induction of adipogenesis in human bone marrow-derived mesenchymal stem cells assessed as increase in number and size of lipid droplets at 20 uM after 7 days in presence of IDX by oil red O staining based inverted microscopic method. It counts as functional.

The source made the active and inactive calls. The rule behind the calls is not given here.

T3 sequence (Q00535 whole entry): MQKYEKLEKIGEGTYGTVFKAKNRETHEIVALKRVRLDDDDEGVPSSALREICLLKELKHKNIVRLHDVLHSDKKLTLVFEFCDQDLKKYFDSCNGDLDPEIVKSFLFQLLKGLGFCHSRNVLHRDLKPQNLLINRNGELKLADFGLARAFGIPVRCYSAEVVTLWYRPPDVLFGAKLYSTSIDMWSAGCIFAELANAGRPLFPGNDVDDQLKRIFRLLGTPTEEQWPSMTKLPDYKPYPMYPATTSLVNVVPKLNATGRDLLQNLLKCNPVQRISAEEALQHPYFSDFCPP
T3 sequence (Q15078 99-307 partner limits assumed): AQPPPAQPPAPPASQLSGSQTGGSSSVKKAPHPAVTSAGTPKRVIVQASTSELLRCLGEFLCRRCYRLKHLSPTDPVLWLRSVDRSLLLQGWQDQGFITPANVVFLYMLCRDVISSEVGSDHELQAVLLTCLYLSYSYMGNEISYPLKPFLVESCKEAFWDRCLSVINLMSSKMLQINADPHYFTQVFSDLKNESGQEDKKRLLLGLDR

As for `CNC(=O)[C@H]1O[C@@H](n2cnc3c(NCc4cccc(I)c4)ncnc32)[C@H](O)[C@@H]1O` [IB-MECA], the outcome in assay [1] and in [8] was inactive. The inhibition was 26% in assay [2]; “Dose-dependent effect” in assay [3]; 22.2% in assay [4]; 14% in [9]; 48.3% in assay [12]. Also, the inhibition entry in assay [5], in [7] and in assay [10] was “inactive” in each case. Also, the Activity in assay [6] was determined as 29.9%; in [11], 216 pg/mL. Besides, the outcome in the assay on Mus musculus and in the assay with Mesenchymal stem cell was Active.

A word on the inhibition: it is the share of the control response that was lost under treatment.
